Results published in ChEMBL document CHEMBL3813687, “A combined ligand- and structure-based approach for the identification of rilmenidine-derived compounds which synergize the antitumor effects of doxorubicin” (Bioorg Med Chem, 2016).
The source made the active and inactive calls. The calls are words filed in the database; no cut-off is given here.

What was measured:
[1] = Displacement of [3H]-clonidine from Imidazoline-1 receptor in bovine adrenal medullary plasma membrane incubated for 40 mins in presence of RX821002; parameters: species or system Bos taurus
[2] = target: Nischarin (Rattus norvegicus, UniProt Q4G017); assay: Displacement of [125I]PIC from Imidazoline-1 receptor in rat PC12 cell membrane incubated for 30 mins by gamma counting method; assay type: cell membranes, PC-12
Sequence of Nischarin (Q4G017 whole entry): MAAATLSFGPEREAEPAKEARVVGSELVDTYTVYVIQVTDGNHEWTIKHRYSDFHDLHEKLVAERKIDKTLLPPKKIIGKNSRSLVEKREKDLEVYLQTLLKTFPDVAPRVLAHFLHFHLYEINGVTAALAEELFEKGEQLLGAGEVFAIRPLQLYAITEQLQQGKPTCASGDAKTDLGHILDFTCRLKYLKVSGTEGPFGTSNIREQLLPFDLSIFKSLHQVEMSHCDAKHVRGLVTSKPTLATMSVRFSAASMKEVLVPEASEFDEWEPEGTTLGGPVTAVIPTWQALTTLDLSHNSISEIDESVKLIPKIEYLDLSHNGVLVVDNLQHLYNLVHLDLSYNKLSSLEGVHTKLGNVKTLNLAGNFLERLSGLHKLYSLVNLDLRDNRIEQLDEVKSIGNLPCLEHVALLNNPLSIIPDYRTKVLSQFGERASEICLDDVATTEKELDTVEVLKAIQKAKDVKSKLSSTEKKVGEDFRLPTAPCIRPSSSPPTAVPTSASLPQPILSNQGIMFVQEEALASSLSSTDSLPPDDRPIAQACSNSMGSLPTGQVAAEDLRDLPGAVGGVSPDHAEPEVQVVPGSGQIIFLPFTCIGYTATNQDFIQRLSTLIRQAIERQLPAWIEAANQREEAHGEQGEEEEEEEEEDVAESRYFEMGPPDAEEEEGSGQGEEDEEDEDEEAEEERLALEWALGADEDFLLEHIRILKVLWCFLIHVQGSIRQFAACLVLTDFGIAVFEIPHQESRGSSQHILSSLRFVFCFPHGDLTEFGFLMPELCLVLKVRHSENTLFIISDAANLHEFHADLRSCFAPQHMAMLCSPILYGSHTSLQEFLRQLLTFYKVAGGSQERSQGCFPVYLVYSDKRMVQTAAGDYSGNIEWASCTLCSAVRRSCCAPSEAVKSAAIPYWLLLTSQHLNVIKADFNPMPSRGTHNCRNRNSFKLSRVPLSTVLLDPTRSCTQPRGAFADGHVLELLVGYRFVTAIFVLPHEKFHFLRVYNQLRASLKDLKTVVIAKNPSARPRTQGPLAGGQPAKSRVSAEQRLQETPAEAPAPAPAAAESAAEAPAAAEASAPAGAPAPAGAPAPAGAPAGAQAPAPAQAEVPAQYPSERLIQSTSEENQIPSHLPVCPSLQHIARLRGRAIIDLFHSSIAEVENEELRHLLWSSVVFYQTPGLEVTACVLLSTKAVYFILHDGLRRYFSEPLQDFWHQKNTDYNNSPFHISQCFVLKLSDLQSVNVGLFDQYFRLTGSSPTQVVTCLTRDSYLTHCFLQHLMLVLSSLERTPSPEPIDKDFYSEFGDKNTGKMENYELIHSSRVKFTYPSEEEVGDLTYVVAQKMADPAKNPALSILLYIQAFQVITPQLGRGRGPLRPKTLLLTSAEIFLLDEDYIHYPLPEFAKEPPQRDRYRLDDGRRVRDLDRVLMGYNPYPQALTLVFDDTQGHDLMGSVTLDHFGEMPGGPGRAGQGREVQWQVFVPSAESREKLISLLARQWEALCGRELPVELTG

[3] = target: T1, Alpha-2A adrenergic receptor (Homo sapiens, UniProt P08913); assay: Intrinsic activity at recombinant human alpha2A adrenoreceptor expressed in CHOK1 cell membrane incubated for 30 mins by [35S]GTPgammaS binding assay relative to adrenaline; assay type: cell membranes; settings: CHO-K1, human, 0.5 h; read-out: Intrinsic activity
T1 sequence (P08913 whole entry): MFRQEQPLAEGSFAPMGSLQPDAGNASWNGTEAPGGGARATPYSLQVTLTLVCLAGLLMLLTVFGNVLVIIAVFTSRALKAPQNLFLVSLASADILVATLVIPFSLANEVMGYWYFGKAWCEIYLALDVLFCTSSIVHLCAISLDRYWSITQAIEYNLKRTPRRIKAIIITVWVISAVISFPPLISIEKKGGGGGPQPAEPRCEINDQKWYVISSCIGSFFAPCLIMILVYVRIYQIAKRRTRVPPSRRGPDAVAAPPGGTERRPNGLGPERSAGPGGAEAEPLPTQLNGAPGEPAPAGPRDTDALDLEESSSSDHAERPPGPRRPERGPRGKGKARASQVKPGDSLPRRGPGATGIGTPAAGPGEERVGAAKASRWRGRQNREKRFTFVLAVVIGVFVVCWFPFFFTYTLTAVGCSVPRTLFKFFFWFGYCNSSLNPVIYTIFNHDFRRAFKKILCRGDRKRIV

[4] = tested on: K562; assay: Antiproliferative activity against human K562 cells assessed as inhibition of cell survival after 48 hrs by MTT assay; assay type: functional, cell-based; settings: K562, 48 h
[5] = target: T1, Alpha-2A adrenergic receptor; assay: Displacement of [3H]RS-79948-197 from recombinant human alpha2A adrenoreceptor expressed in CHOK1 cell membrane by scintillation counting method; assay type: cell membranes, CHO-K1; settings: read-out: Ki(app)
[6] = tested on: K562; assay: Induction of apoptosis in human K562 cells assessed as early apoptotic cells at 300 uM up to 48 hrs by Annexin V-FITC/propidium iodide staining based flow cytometry; assay type: functional, cell-based
[7] = tested on: K562; assay: Induction of apoptosis in human K562 cells assessed as early apoptotic cells at 50 uM after 48 hrs by Annexin V-FITC/propidium iodide staining based flow cytometry (reference value: 5%); assay type: functional
[8] = tested on: K562; assay: Potentiation of doxorubicin-induced apoptosis in human K562 cells assessed as early apoptotic cells at 50 uM after 48 hrs by Annexin V-FITC/propidium iodide staining based flow cytometry relative to control; assay type: functional
[9] = target: T1, Alpha-2A adrenergic receptor
Description: Agonist activity at recombinant human alpha2A adrenoreceptor expressed in CHOK1 cell membrane incubated for 30 mins by [35S]GTPgammaS binding assay

[10] = Displacement of [3H]-clonidine from Imidazoline-1 receptor in bovine chromaffin cell membranes incubated for 40 mins in presence of RX821002; parameters: species or system Bos taurus
[11] = tested on: K562; assay: Potentiation of 1.4 uM doxorubicin-induced cytotoxicity in human K562 cells assessed as inhibition of cell survival at 100 uM after 48 hrs by MTT assay relative to control; assay type: functional
[12] = tested on: K562; assay: Potentiation of 1.4 uM doxorubicin-induced cytotoxicity in human K562 cells assessed as combination index at 100 uM after 48 hrs by MTT assay relative to control; assay type: functional
[13] = tested on: K562; assay: Potentiation of doxorubicin-induced apoptosis in human K562 cells assessed as necrotic cells at 70 uM after 48 hrs by Annexin V-FITC/propidium iodide staining based flow cytometry (reference value: 1%); assay type: functional
[14] = tested on: K562; assay: Potentiation of 0.36 uM doxorubicin-induced cytotoxicity in human K562 cells assessed as combination index at 25 uM after 48 hrs by MTT assay relative to control; assay type: functional
[15] = tested on: K562; assay: Potentiation of doxorubicin-induced apoptosis in human K562 cells assessed as late apoptotic cells at 70 uM after 48 hrs by Annexin V-FITC/propidium iodide staining based flow cytometry (reference value: 1%); assay type: functional
[16] = tested on: K562; assay: Potentiation of 1 uM doxorubicin-induced cytotoxicity in human K562 cells assessed as combination index at 70 uM after 48 hrs by MTT assay relative to control; assay type: functional
[17] = tested on: K562; assay: Potentiation of doxorubicin-mediated cell cycle arrest in human K562 cells assessed as increase in sub-G1 cell population after 48 hrs by propidium iodide staining based flow cytometry; assay type: functional
[18] = tested on: K562; assay: Cell cycle arrest in human K562 cells assessed as accumulation at S phase at 70 uM after 48 hrs by propidium iodide staining based flow cytometry (reference value: 29%); assay type: functional
[19] = tested on: K562; assay: Potentiation of 0.7 uM doxorubicin-induced cytotoxicity in human K562 cells assessed as combination index at 50 uM after 48 hrs by MTT assay relative to control; assay type: functional
[20] = tested on: K562; assay: Cell cycle arrest in human K562 cells assessed as accumulation at G2/M phase at 70 uM after 48 hrs by propidium iodide staining based flow cytometry (reference value: 26%); assay type: functional
[21] = tested on: K562; assay: Cell cycle arrest in human K562 cells assessed as accumulation at sub-G1 phase at 70 uM after 48 hrs by propidium iodide staining based flow cytometry (reference value: 3%); assay type: functional
[22] = tested on: K562; assay: Potentiation of 0.7 uM doxorubicin-induced cytotoxicity in human K562 cells assessed as inhibition of cell survival at 50 uM after 48 hrs by MTT assay relative to control; assay type: functional
[23] = tested on: K562; assay: Inhibition of colony formation in human K562 cells after 24 hrs by clonogenic assay; assay type: functional, cell-based
[24] = tested on: K562; assay: Induction of apoptosis in human K562 cells assessed as necrotic cells at 70 uM after 48 hrs by Annexin V-FITC/propidium iodide staining based flow cytometry (reference value: 1%); assay type: functional
[25] = target: Proto-oncogene tyrosine-protein kinase Src (Homo sapiens) (UniProt P12931); assay: Inhibition of recombinant human N-terminal poly His/GST-tagged SRC expressed in baculovirus infected insect cells using KVEKIGEGTYGVVYK peptide substrate assessed as residual activity at 100 uM in presence of NP40 by [gamma32P]ATP filter binding assay relative to control
Sequence of Proto-oncogene tyrosine-protein kinase Src (Homo sapiens) (P12931 2-536 limits assumed): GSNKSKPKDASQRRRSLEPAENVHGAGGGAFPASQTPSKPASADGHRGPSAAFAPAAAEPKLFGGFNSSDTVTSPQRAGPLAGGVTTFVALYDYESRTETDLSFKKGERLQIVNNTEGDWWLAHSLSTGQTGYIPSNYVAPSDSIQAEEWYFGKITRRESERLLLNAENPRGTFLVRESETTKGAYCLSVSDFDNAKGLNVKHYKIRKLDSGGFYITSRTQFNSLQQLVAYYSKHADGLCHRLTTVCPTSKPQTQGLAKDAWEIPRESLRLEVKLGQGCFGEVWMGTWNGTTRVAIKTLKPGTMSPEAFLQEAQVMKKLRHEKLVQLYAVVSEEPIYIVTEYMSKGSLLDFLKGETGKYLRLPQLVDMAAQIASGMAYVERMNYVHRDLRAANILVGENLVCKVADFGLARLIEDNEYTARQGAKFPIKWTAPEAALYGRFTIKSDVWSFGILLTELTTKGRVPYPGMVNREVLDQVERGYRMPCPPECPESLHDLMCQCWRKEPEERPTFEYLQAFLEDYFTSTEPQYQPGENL

[26] = target: Tyrosine-protein kinase ABL1 (Homo sapiens) (UniProt P00519); assay: Inhibition of recombinant human N-terminal His-tagged ABL expressed in baculovirus infected sf9 cells using abtide as substrate assessed as residual activity at 100 uM by [gamma32P]ATP filter binding assay relative to control
Sequence of Tyrosine-protein kinase ABL1 (Homo sapiens) (P00519 whole entry): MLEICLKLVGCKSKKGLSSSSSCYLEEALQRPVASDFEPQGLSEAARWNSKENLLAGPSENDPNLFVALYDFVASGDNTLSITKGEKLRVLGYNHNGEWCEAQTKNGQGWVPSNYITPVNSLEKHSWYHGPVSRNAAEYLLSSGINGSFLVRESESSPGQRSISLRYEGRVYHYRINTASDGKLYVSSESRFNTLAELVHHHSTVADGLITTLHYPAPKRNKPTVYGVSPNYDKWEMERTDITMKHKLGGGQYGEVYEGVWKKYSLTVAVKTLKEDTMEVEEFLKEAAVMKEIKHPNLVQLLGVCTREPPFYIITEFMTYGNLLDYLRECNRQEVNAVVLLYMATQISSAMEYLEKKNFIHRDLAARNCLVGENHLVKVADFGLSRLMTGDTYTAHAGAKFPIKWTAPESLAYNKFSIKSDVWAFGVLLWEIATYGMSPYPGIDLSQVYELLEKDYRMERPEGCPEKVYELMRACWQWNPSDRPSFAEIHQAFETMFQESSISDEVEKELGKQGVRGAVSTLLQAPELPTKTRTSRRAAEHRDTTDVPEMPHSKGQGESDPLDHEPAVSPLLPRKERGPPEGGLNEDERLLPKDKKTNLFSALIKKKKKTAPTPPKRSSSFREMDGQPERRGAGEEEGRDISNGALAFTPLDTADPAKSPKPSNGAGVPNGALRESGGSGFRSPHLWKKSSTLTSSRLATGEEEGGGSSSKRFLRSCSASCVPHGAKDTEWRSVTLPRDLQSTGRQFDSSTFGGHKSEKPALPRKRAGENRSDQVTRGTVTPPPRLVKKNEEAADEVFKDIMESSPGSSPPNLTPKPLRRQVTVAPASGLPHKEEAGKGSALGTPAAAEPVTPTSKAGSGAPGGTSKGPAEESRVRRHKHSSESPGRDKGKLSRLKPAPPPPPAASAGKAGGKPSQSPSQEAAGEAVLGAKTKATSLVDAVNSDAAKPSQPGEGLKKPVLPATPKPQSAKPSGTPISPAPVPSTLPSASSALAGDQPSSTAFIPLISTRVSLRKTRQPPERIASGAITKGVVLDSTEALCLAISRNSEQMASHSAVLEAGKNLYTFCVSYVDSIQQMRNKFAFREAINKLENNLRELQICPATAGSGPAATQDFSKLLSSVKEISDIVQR

[27] = target: Tyrosine-protein kinase ABL1 (Homo sapiens) (UniProt P00519); assay: Inhibition of recombinant human N-terminal His-tagged ABL expressed in baculovirus infected sf9 cells using abtide as substrate assessed as residual activity at 100 uM in presence of NP40 by [gamma32P]ATP filter binding assay relative to control
[28] = tested on: K562; assay: Potentiation of 0.36 uM doxorubicin-induced cytotoxicity in human K562 cells assessed as inhibition of cell survival at 25 uM after 48 hrs by MTT assay relative to control; assay type: functional
[29] = tested on: K562; assay: Induction of apoptosis in human K562 cells assessed as early apoptotic cells at 70 uM after 48 hrs by Annexin V-FITC/propidium iodide staining based flow cytometry (reference value: 5%); assay type: functional
[30] = tested on: K562; assay: Potentiation of 1 uM doxorubicin-induced cytotoxicity in human K562 cells assessed as inhibition of cell survival at 70 uM after 48 hrs by MTT assay relative to control; assay type: functional
[31] = tested on: K562; assay: Cell cycle arrest in human K562 cells assessed as accumulation at G0/G1 phase at 70 uM after 48 hrs by propidium iodide staining based flow cytometry (reference value: 42%); assay type: functional
[32] = tested on: K562; assay: Antiproliferative activity against human K562 cells at 70 uM after 24 hrs by clonogenic assay relative to control; assay type: functional; settings: K562, 24 h, read-out: GI
[33] = tested on: K562; assay: Potentiation of doxorubicin-induced apoptosis in human K562 cells assessed as early apoptotic cells at 70 uM after 48 hrs by Annexin V-FITC/propidium iodide staining based flow cytometry (reference value: 5%); assay type: functional
[34] = target: Proto-oncogene tyrosine-protein kinase Src (Homo sapiens) (UniProt P12931); assay: Inhibition of recombinant human N-terminal poly His/GST-tagged SRC expressed in baculovirus infected insect cells using KVEKIGEGTYGVVYK peptide substrate assessed as residual activity at 100 uM by [gamma32P]ATP filter binding assay relative to control
[35] = tested on: K562; assay: Potentiation of doxorubicin-mediated cell cycle arrest in human K562 cells assessed as decrease in G2/M cell population after 48 hrs by propidium iodide staining based flow cytometry; assay type: functional
[36] = tested on: K562; assay: Induction of apoptosis in human K562 cells assessed as late apoptotic cells at 70 uM after 48 hrs by Annexin V-FITC/propidium iodide staining based flow cytometry (reference value: 1%); assay type: functional

SMILES: COC1=CCCC=C1C1=NCCN1
- pKi [1]: 8.53

SMILES: Clc1cccc(Cl)c1N=C1NCCN1 [CLONIDINE]
- Ki [2]: 0.126 µM

SMILES: Cc1cc(NCc2ccccc2)cc(=O)n1CCC(C)C
- Emax [3]: -10%
- IC50 [4]: > 300 µM
- Ki [5]: 27 µM

SMILES: Clc1cccc2c1CN(NC1=NCCN1)C2
- Ki [2]: 0.0282 µM

SMILES: Cc1cc(NCCC(C)C)cc(=O)n1CCC(C)C
- Emax [3]: -17%
- IC50 [4]: 128 µM
- Ki [5]: 52 µM

SMILES: CCC1(C2=NCCN2)Cc2ccccc2O1 (stereo not drawn) [EFAROXAN]
- Activity [6]: inactive
- Emax [3]: -13%
- IC50 [4]: > 300 µM

SMILES: C1COC(NC(C2CC2)C2CC2)=N1 [RILMENIDINE]
- Activity [7]: 20%
- Activity [8]: 44%
- Emax [3]: 54%
- Ki [2]: 0.0126 µM
- IC50 [4]: 65 µM
- Ki [5]: 0.3 µM
- EC50 [9]: 0.178 µM

SMILES: CCCCCn1c(C)cc(NCc2ccc(Cl)cc2)cc1=O
- Emax [3]: 0%
- IC50 [4]: > 300 µM
- Ki [5]: 80 µM

SMILES: CC1CCN=C1NC(C1CC1)C1CC1 (stereo not drawn)
- pKi [10]: 4

SMILES: Cc1cccc([C@H](C)c2c[nH]cn2)c1C [DEXMEDETOMIDINE]
- Emax [3]: 63%

SMILES: Cc1cc(NCc2ccc(Cl)cc2)cc(=O)n1CCC(C)C
- Emax [3]: -1%
- IC50 [4]: 224 µM
- Ki [5]: 99 µM

SMILES: CC(Oc1c(Cl)cccc1Cl)C1=NCCN1 (stereo not drawn) [LOFEXIDINE]
- Ki [2]: 0.00562 µM

SMILES: Cc1cc(NCCC(C)C)cc(=O)n1Cc1ccccc1
- Emax [3]: -2%
- IC50 [4]: > 300 µM
- Ki [5]: 110 µM

SMILES: CN1CCCCC1CCn1cnc2ccccc21 (stereo not drawn)
- Emax [3]: -6%
- IC50 [4]: > 300 µM
- Ki [5]: 11 µM

SMILES: CN1CCCCC1CCn1c2ccccc2c2ccccc21 (stereo not drawn)
- inhibition (INH) [11]: 78.21%
- Ratio [12]: 0.688
- Activity [13]: 1%
- Ratio [14]: 0.877
- Activity [15]: 2%
- Ratio [16]: 0.617
- Activity [17]: Active
- Activity [18]: 16%
- Ratio [19]: 0.511
- Activity [20]: 10%
- Activity [21]: 44%
- inhibition (INH) [22]: 68.62%
- Emax [3]: -3%
- inhibition [23]: Dose-dependent effect
- Activity [24]: 9%
- Activity [25]: 96%
- Activity [26]: 94%
- Activity [27]: 100%
- IC50 [4]: 70 µM
- inhibition (INH) [28]: 45.75%
- Activity [29]: 40%
- inhibition (INH) [30]: 72.21%
- Activity [31]: 30%
- inhibition of growth at 70 µM [32]: 88%
- Activity [33]: 64%
- Ki [5]: 1.2 µM
- Activity [34]: 100%
- Activity [35]: Active
- Activity [36]: 13%

SMILES: N#CSc1ccc2oc(C3=NCCN3)cc2c1
- pKi [10]: 5.6

SMILES: CCCCCNc1cc(C)n(Cc2ccccc2)c(=O)c1
- Emax [3]: -8%
- IC50 [4]: 140 µM
- Ki [5]: 110 µM

SMILES: C1CCC2N=C(NC(C3CC3)C3CC3)CC2C1 (stereo not drawn)
- pKi [10]: 4
